≈ marks a conversion by molar mass, not a printed value.
Experiments:
[1] = system: Human immunodeficiency virus; assay: Antiviral activity against HIV; assay type: functional, organism-based; conditions: Human immunodeficiency virus 1
CEM-SS = assay: Cytotoxicity against human CEM-SS cells; assay type: functional, cell-based

EC50 [1]: 11 µg/mL (≈ 27.7 µM)
SMILES: COc1c(CC=C(C)C)c(O)c(C(=O)c2ccc(O)cc2)c(O)c1CC=C(C)C [VISMIAPHENONE D]
IC50 (CEM-SS): 30 µg/mL (≈ 75.7 µM)

From ChEMBL document CHEMBL1157986, “Vismiaphenones D-G, new prenylated benzophenones from Vismia cayennensis” (J Nat Prod, 1999)
